The values below come from patent publication US20240368104A1, “Novel Dialkoxynaphtho[2,3-C]Furan-1(3H)-One Derivatives and Pharmaceutical Composition For Preventing or Treating Respiratory Disease or SARS-COV-2 Infection Disease, Comprising Same” (priority 2021, published 2024).

Molecules are shown by their SMILES. Read-outs that look alike come from different tables or passages of the source.

Series [1] in a line: in vitro. Conditions: African green monkey.
Series [2] relates to SARS-COV-2. The experiment in a line: microbe, parasite or virus in culture. The class given is cell-based. More on the design: SI (Selectivity Index, CC50/IC50): unit not given here. Conditions: for SI (Selectivity Index, CC50/IC50): SARS-COV-2, values >50 assumed to be 50; for IC50: read-out: SARS-COV-2 inhibition (IC50).
The mark [3] stands for this setting: Severe acute respiratory syndrome coronavirus 2, Vero cells, 24 hours infection.
Where [4] appears, read: Severe acute respiratory syndrome coronavirus 2, Vero, 24 h.

In turn, `COc1cc2cc3c(c(-c4cnc(N5CCc6sccc6C5)nc4)c2cc1OC)C(=O)OC3` [Example 12, 9-(2-(6,7-dihydrothieno[3,2-c]pyridin-5 (4H)-yl)pyrimidin-5-yl)-6,7-dimethoxynaphtho[2,3-c]furan-1(3H)-one] returned a CC50 in series [1] greater than 50 µM. For the same compound, the “SI (Selectivity Index, CC50/IC50)” value in series [2] is 60.38. Besides, the concentration for half-maximal inhibition (IC50) in series [2] (setting [3]) came to 0.83 µM.

As for `CCN(Cc1ccncc1)c1ccc(-c2c3c(cc4cc(OC)c(OC)cc24)COC3=O)cn1` [Example 226, 9-(6-(ethyl(pyridin-4-ylmethyl)amino)pyridin-3-yl)-6,7-dimethoxynaphtho[2,3-c]furan-1(3H)-one], the CC50 in series [1] was greater than 50 µM. For the same compound, in series [2], the “SI (Selectivity Index, CC50/IC50)” value amounted to 7.47. For the same compound, the IC50 in series [2] (setting [3]) was 6.69 µM.

As for `COc1cc2cc3c(c(-c4cnc(N(C)C5CCCCC5)nc4)c2cc1OC)C(=O)OC3.Cl` [Example 79, 9-(2-(cyclohexyl(methyl)amino)pyrimidin-5-yl)-6,7-dimethoxynaphtho[2,3-c]furan-1(3H)-one hydrochloride], in series [1], the CC50 was greater than 50 µM. Further, the “SI (Selectivity Index, CC50/IC50)” value in series [2] was 46.19. In addition, the IC50 in series [2] (setting [4]) amounted to 1.08 µM.

`COc1cc2cc3c(c(-c4ccc(N5CCOCC5)nn4)c2cc1OC)C(=O)OC3` [Example 219, 6,7-dimethoxy-9-(6-morpholinopyridazin-3-yl)naphtho[2,3-c]furan-1(3H)-one] came in with a CC50 in series [1] greater than 50 µM. The “SI (Selectivity Index, CC50/IC50)” value in series [2] was 1.00. The IC50 in series [2] (setting [3]) was greater than 50 µM.

The compound `COc1cc2c(OC)c3c(c(-c4ccc(N(C)C5Cc6ccccc6C5)nc4)c2cc1OC)COC3=O.Cl` [Example 268, 4-(6-((2,3-dihydro-1H-indan-2-yl)(methyl)amino)pyridin-3-yl)-6,7,9-trimethoxynaphtho[2,3-c]furan-1(3H)-one] returned a CC50 in series [1] greater than 50 µM. For the same compound, the “SI (Selectivity Index, CC50/IC50)” value in series [2] is 1.00. Besides, the half-maximal inhibitory concentration (IC50) in series [2] (setting [4]) was greater than 50 µM.

`CNc1ncc(-c2c3c(cc4cc(OC)c(OC)cc24)COC3=O)cn1` [Example 108, 6,7-dimethoxy-9-(2-(methylamino)pyrimidin-5-yl)naphtho[2,3-c]furan-1(3H)-one] yielded a CC50 in series [1] greater than 50 µM. The “SI (Selectivity Index, CC50/IC50)” value in series [2] is given as 18.03. In addition, the half-maximal inhibitory concentration (IC50) in series [2] (setting [3]) worked out at 2.77 µM.

As for `COc1cc2cc3c(c(-c4ccc5[nH]ccc5c4)c2cc1OC)C(=O)OC3` [Example 34, 9-(1H-indol-5-yl)-6,7-dimethoxynaphtho[2,3-c]furan-1(3H)-one], in series [1], the CC50 is greater than 50 µM. Further, the “SI (Selectivity Index, CC50/IC50)” value in series [2] came to 12.40. For the same compound, the IC50 in series [2] (setting [3]) amounted to 4.03 µM.

Turning to `COc1cc2cc3c(c(-c4cc(C)nc5c(OC)cccc45)c2cc1OC)C(=O)OC3` [Example 149, 6,7-dimethoxy-9-(8-methoxy-2-methylquinolin-4-yl)naphtho[2,3-c]furan-1(3H)-one], the CC50 in series [1] was greater than 50 µM. In series [2], the “SI (Selectivity Index, CC50/IC50)” value was found to be 1.0. Also, the IC50 in series [2] (setting [3]) was greater than 50 µM.

Take `CCC(C)N(C)c1ncc(-c2c3c(cc4cc(OC)c(OC)cc24)COC3=O)cn1.Cl` (stereo not drawn) [Example 100, 9-(2-(sec-butyl(methyl)amino)pyrimidin-5-yl)-6,7-dimethoxynaphtho[2,3-c]furan-1(3H)-one hydrochloride]: the CC50 in series [1] was greater than 50 µM. The “SI (Selectivity Index, CC50/IC50)” value in series [2] is given as 96.21. In series [2] (setting [4]), the concentration for half-maximal inhibition (IC50) came to 0.52 µM.

`COc1cc2cc3c(c(-c4ccc(N(C)CC(C)C)nc4)c2cc1OC)C(=O)OC3` [Example 181, 9-(6-(isobutyl(methyl)amino)pyridin-3-yl)-6,7-dimethoxynaphtho[2,3-c]furan-1(3H)-one] displayed a CC50 in series [1] greater than 50 µM. For the same compound, the “SI (Selectivity Index, CC50/IC50)” value in series [2] is 53.67. Moreover, in series [2] (setting [3]), the concentration for half-maximal inhibition (IC50) worked out at 0.93 µM.

Turning to `COc1cc2cc3c(c(-c4cnc(N5CCC[C@@H]5CO)nc4)c2cc1OC)C(=O)OC3.Cl` [Example 82, (R)-9-(2-(2-(hydroxymethyl)pyrrolidin-1-yl)pyrimidin-5-yl)-6,7-dimethoxynaphtho[2,3-c]furan-1(3H)-one hydrochloride], in series [1], the CC50 is greater than 50 µM. Besides, in series [2], the “SI (Selectivity Index, CC50/IC50)” value is on record as 3.93. Also, the IC50 in series [2] (setting [4]) came out at 12.7 µM.

Turning to `COc1cc2cc3c(c(-c4cc(C)nc5c(F)cccc45)c2cc1OC)C(=O)OC3` [Example 134, 9-(8-fluoro-2-methylquinolin-4-yl)-6,7-dimethoxynaphtho[2,3-c]furan-1(3H)-one], in series [1], the CC50 is greater than 50 µM. In series [2], the “SI (Selectivity Index, CC50/IC50)” value is 1.0. In addition, the IC50 in series [2] (setting [3]) was greater than 50 µM.

Consider `COc1cc2cc3c(c(-c4cnc(NC5CCCC5)nc4)c2cc1OC)C(=O)OC3.Cl` [Example 91, 9-(2-(cyclopentylamino)pyrimidin-5-yl)-6,7-dimethoxynaphtho[2,3-c]furan-1(3H)-one hydrochloride], for which the CC50 in series [1] was greater than 50 µM. Also, the “SI (Selectivity Index, CC50/IC50)” value in series [2] was 5.15. Also, the IC50 in series [2] (setting [4]) is 9.7 µM.

The compound `COc1cc2cc3c(c(N4CCN(c5cc(Cl)nc(SC)n5)CC4)c2cc1OC)C(=O)OC3` [Example 130, 9-(4-(6-chloro-2-(methylthio)pyrimidin-4-yl)pilerazin-1-yl)-6,7-dimethoxynaphtho[2,3-c]furan-1(3H)-one] displayed a CC50 in series [1] greater than 50 µM. Moreover, in series [2], the “SI (Selectivity Index, CC50/IC50)” value turned out to be 1.0. In series [2] (setting [3]), the half-inhibitory concentration (IC50) is greater than 50 µM.

For `COc1cc2cc3c(c(-c4ccc(N(C)c5ccccc5)nc4)c2cc1OC)C(=O)OC3` [Example 222, 6,7-dimethoxy-9-(6-(methyl(phenyl)amino)pyridin-3-yl)naphtho[2,3-c]furan-1(3H)-one], in series [1], the CC50 is greater than 50 µM. Further, the “SI (Selectivity Index, CC50/IC50)” value in series [2] was 162.21. Also, in series [2] (setting [3]), the half-inhibitory concentration (IC50) came to 0.31 µM.

For `COc1cc2cc3c(c(-c4ccc(N5CCSCC5)nc4)c2cc1OC)C(=O)OC3` [Example 10, 6,7-dimethoxy-9-(6-thiomorpholinopyridin-3-yl)naphtho[2,3-c]furan-1(3H)-one], the CC50 in series [1] was greater than 50 µM. For the same compound, in series [2], the “SI (Selectivity Index, CC50/IC50)” value is given as 91.58. The IC50 in series [2] (setting [3]) was 0.55 µM.

Consider `COc1cc2cc3c(c(-c4cnc(N(C)C5CCOCC5)nc4)c2cc1OC)C(=O)OC3` [Example 115, 6,7-dimethoxy-9-(2-(methyl(tetrahydro-2H-pyran-4-yl)amino)pyrimidin-5-yl)naphtho[2,3-c]furan-1(3H)-one], for which the CC50 in series [1] is greater than 50 µM. In addition, the “SI (Selectivity Index, CC50/IC50)” value in series [2] was found to be 48.62. In series [2] (setting [3]), the IC50 came to 1.03 µM.

In series [1], `COc1cc2cc3c(c(-c4cnc5ccc(N6CCOCC6)nn45)c2cc1OC)C(=O)OC3` [Example 220, 6,7-dimethoxy-9-(6-morpholinoimidazo[1,2-b]pyridazin-3-yl)naphtho[2,3-c]furan-1(3H)-one] showed a CC50 greater than 50 µM. For the same compound, the “SI (Selectivity Index, CC50/IC50)” value in series [2] was 1.00. In series [2] (setting [3]), the IC50 was greater than 50 µM.

On to `COc1cc2cc3c(c(-c4ccc5nc(C)ccc5c4)c2cc1OC)C(=O)OC3` [Example 116, 6,7-dimethoxy-9-(2-methylquinolin-6-yl)naphtho[2,3-c]furan-1(3H)-one], for which the CC50 in series [1] was greater than 50 µM. In addition, the “SI (Selectivity Index, CC50/IC50)” value in series [2] is 43.72. In addition, the IC50 in series [2] (setting [3]) stood at 1.14 µM.

`COc1cc2cc3c(c(-c4cc5c(cc4OP(=O)(NCCN4CCOCC4)Oc4ccccc4)OCO5)c2cc1OC)C(=O)OC3` (stereo not drawn) [Example 279, 6-(6,7-dimethoxy-3-oxo-1,3-dihydronaphtho[2,3-c]furan-4-yl)benzo[d][1,3]dioxol-5-yl phenyl (2-morpholinoethyl)phosphoramidate]: the CC50 in series [1] is greater than 50 µM. Besides, the “SI (Selectivity Index, CC50/IC50)” value in series [2] is 8.21. In addition, in series [2] (setting [4]), the IC50 was determined as 6.09 µM.

As to `CCN(CC1CCCO1)c1ccc(-c2c3c(cc4cc(OC)c(OC)cc24)COC3=O)cn1` (stereo not drawn) [Example 193, 9-(6-(ethyl((tetrahydrofuran-2-yl)methyl)amino)pyridin-3-yl)-6,7-dimethoxynaphtho[2,3-c]furan-1(3H)-one], in series [1], the CC50 is greater than 50 µM. Further, in series [2], the “SI (Selectivity Index, CC50/IC50)” value was 6.46. Further, the IC50 in series [2] (setting [3]) was determined as 7.74 µM.

`COc1cc2cc3c(c(-c4cnc(/N=C\CN(C)C)cn4)c2cc1OC)C(=O)OC3` [Example 29, (Z)-9-(5-((2-(dimethylamino)ethyliden)amino)pyrazin-2-yl)-6,7-dimethoxynaphtho[2,3-c]furan-1(3H)-one]: the CC50 in series [1] was greater than 50 µM. Also, the “SI (Selectivity Index, CC50/IC50)” value in series [2] is 1.00. In addition, the IC50 in series [2] (setting [3]) was greater than 50 µM.

Regarding `COc1ccc(CN(C)c2ccc(-c3c4c(cc5cc(OC)c(OC)cc35)COC4=O)cn2)c(OC)c1.Cl` [Example 232, 9-(6-((2,4-dimethoxybenzyl)(methyl)amino)pyridin-3-yl)-6,7-dimethoxynaphtho[2,3-c]furan-1(3H)-one], the CC50 in series [1] was greater than 50 µM. For the same compound, in series [2], the “SI (Selectivity Index, CC50/IC50)” value is 15.36. The IC50 in series [2] (setting [4]) was 3.25 µM.

For `CCN(CC)CCNc1c2c(cc3cc(OC)c(OC)cc13)COC2=O` [Example 6, 9-((2-(diethylamino)ethyl)amino)-6,7-dimethoxynaphtho[2,3-c]furan-1(3H)-one], the CC50 in series [1] was greater than 50 µM. For the same compound, the “SI (Selectivity Index, CC50/IC50)” value in series [2] was found to be 1.00. Also, the IC50 in series [2] (setting [3]) is greater than 50 µM.

In series [1], `COc1cc2cc3c(c(-c4ccnc(F)c4)c2cc1OC)C(=O)OC3` [Example 186, 9-(2-fluoropyridin-4-yl)-6,7-dimethoxynaphtho[2,3-c]furan-1(3H)-one] registered a CC50 greater than 50 µM. Moreover, the “SI (Selectivity Index, CC50/IC50)” value in series [2] was determined as 1.0. In addition, in series [2] (setting [3]), the IC50 was greater than 50 µM.

`COc1ccc2c(-c3c4c(cc5cc(OC)c(OC)cc35)COC4=O)cc(C)nc2c1` [Example 141, 6,7-dimethoxy-9-(7-methoxy-2-methylquinolin-4-yl)naphtho[2,3-c]furan-1(3H)-one] had a CC50 in series [1] greater than 50 µM. In series [2], the “SI (Selectivity Index, CC50/IC50)” value was determined as 2.07. For the same compound, the IC50 in series [2] (setting [3]) amounted to 24.2 µM.

`COc1cc2cc3c(c(-c4cnc(N(C)C5CC5)nc4)c2cc1OC)C(=O)OC3` [Example 70, 9-(2-(cyclopropyl(methyl)amino)pyrimidin-5-yl)-6,7-dimethoxynaphtho[2,3-c]furan-1(3H)-one] registered a CC50 in series [1] greater than 50 µM. Besides, the “SI (Selectivity Index, CC50/IC50)” value in series [2] amounted to 92.84. In addition, the IC50 in series [2] (setting [3]) was 0.54 µM.

Broadly, the IC50 is the concentration at which inhibition is half-maximal.
